PMC5242521 (PLoS ONE, 2017)
Where two headings read alike, the source gives them in different places.

Columns and labels:
[1] = molecular target: P-gp (Homo sapiens, UniProt P08183); experiment: P-gp activity: rhodamine 123 accumulation in MCF7R cells; conditions: for inhibition at 100 μM: human, pH 7.4
Experimental: The effects of pyrethroids on activity of ABC and SLC transporters were determined through measuring cellular accumulation or retention of fluorescent or radiolabeled reference substrates for transporters, in the presence or absence of reference inhibitors, as previously described. The nature of cells and reference substrates and inhibitors used for transport assays are summarized in S3 Table.
For accumulation assays (performed for all transporters, excepted BCRP), transporter-expressing cells usually cultured in 48-well plates were first incubated at 37°C with reference substrates in the absence (control) or presence of pyrethroids or reference inhibitors, in a well-defined transport assay medium, consisting of 136 mM NaCl, 5.3 mM KCl, 1.1mM KH2PO4, 0.8 mM MgSO4, 1.8 mM CaCl2, 10 mM HEPES, 11 mM D-glucose and adjusted to pH = 7.4 (excepted for MATE transporter assays, for which pH was set to 8.4). The nature of substrates and reference inhibitors and the incubation times with substrates, that varied according to the transporter, were selected in agreement with previous studies and are indicated in S3 Table. The total incubation volume with substrates was 200 μL/well. After washing twice in phosphate-buffered saline (PBS) (200 μL/well/washing), cells were lysed in distilled water (155 μL/well). An aliquot of cell lysate (5 μL) was then taken for determining cellular protein content by the Bradford method. The rest of lysate (150 μL/well) was used for measuring intracellular accumulation of reference substrates by scintillation counting or spectrofluorimetry using a SpectraMax Gemini SX spectrofluorometer (Molecular Devices, Sunnyvale, CA, USA) (excitation and emission wavelengths were 485 and 535 nm, respectively, for rhodamine 123 and fluorescein, and 355 and 460 nm, respectively, for DAPI).
Intracellular concentrations of reference substrates were initially expressed as fluorescence arbitrary units (for fluorescent dye substrates) or as moles (for radiolabeled substrates) and normalized to cellular protein content, determined by the Bradford method. They were finally used for calculating percentage of transporter activity, according to the following equations [41, 45]: %ABCtransporter activity=([Substrateref inh]-[Substratepyrethroid])×100/([Substrateref inh]-[Substratecontrol]) (1) %SLC transporter activity=([Substratepyrethroid]-[Substratref inh])×100/([Substratecontrol]-[Substrateref inh]) (2) with [Substratepyrethroid] = cellular concentration of reference substrate in the presence of pyrethroid, [Substrateref inh] = cellular concentration of reference substrate in the presence of reference inhibitor and [Substratecontrol] = cellular concentration of reference substrate in control cells not exposed to pyrethroid or reference inhibitor.
The initial tested concentration of pyrethroids was 100 μM. […] Such concentrations were calculated using GraphPad Prism software (GraphPad Software, La Jolla, CA), through nonlinear regression based on the four parameter logistic function using the following equations: […]

[2] = molecular target: T1, BCRP (Homo sapiens, UniProt Q9UNQ0); experiment: BCRP activity: Hoechst 33342 retention in HEK-BCRP cells; assay type: cell-based; conditions: for inhibition at 90 min, 100 μM: human
T1 construct: expressed in transfected cells; host or cells: HEK293
T1 sequence (Q9UNQ0 1-655): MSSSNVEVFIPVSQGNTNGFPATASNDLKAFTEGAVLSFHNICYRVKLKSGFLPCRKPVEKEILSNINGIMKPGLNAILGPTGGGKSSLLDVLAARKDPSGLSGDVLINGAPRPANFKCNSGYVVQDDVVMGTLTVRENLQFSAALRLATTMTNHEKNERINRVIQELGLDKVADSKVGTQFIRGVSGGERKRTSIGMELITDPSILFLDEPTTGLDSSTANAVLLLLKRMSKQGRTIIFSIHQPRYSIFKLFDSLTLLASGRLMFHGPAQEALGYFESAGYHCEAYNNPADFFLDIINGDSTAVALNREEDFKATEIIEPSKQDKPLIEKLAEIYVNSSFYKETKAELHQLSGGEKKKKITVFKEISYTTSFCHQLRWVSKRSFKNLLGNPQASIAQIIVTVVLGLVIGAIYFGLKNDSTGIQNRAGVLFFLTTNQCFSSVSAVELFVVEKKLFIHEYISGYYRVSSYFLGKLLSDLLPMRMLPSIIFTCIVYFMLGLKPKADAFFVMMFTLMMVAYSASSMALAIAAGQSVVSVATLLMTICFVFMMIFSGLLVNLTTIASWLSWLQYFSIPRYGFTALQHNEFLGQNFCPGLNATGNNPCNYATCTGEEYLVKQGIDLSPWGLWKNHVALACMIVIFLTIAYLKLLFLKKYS
Experimental: For retention assay (used for BCRP activity), HEK-BCRP cells cultured in 48-well plates were first loaded at 37°C with transport assay (200 μL/well) containing 16.2 μM Hoechst 33342 for 30 min. After washing twice in PBS (200 μL/well/washing), cells were reincubated in Hoechst 33342-free transport assay medium (200 μL/well) at 37°C for 90 min in the absence or presence of pyrethroids or of the BCRP reference inhibitor fumitremorgin C used at 10 μM. Cells were next lysed in distilled water (155 μL/well) after washing twice in PBS (200 μL/well/washing). The cell lysate was finally used for determining cellular protein content and intracellular retention of Hoechst 33342 (by spectrofluorimetry: excitation and emission wavelengths were 355 and 460 nm, respectively), as described above.
(§1) The initial tested concentration of pyrethroids was 100 μM.

[3] = molecular target: T2, OATP1B1 (Homo sapiens, UniProt Q9Y6L6); experiment: OATP1B1 activity: E3S accumulation in CHO-OATP1B1 cells; assay type: cell-based; conditions: for inhibition at 100 μM: human, pH 7.4
T2 construct: expressed in transfected cells; host or cells: CHO
T2 sequence (Q9Y6L6 1-691): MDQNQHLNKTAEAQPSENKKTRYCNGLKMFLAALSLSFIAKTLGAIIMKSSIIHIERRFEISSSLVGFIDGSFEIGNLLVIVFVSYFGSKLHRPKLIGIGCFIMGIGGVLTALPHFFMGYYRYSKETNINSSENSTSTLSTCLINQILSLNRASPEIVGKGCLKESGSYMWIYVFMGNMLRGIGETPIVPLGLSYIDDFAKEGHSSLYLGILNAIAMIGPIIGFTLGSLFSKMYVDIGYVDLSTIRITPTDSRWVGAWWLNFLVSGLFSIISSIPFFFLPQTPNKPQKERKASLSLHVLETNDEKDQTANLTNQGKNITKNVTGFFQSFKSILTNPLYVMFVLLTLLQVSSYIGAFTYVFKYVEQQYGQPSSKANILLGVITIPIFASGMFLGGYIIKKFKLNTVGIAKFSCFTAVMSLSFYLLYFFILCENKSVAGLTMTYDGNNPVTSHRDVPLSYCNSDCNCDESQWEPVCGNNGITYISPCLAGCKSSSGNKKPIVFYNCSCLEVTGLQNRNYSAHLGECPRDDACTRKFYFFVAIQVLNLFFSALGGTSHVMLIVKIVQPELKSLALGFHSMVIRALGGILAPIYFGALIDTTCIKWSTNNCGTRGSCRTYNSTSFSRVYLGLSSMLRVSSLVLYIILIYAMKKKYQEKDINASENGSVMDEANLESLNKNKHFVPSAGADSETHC
Experimental: as §1

Sequence of P-gp (P08183 whole entry): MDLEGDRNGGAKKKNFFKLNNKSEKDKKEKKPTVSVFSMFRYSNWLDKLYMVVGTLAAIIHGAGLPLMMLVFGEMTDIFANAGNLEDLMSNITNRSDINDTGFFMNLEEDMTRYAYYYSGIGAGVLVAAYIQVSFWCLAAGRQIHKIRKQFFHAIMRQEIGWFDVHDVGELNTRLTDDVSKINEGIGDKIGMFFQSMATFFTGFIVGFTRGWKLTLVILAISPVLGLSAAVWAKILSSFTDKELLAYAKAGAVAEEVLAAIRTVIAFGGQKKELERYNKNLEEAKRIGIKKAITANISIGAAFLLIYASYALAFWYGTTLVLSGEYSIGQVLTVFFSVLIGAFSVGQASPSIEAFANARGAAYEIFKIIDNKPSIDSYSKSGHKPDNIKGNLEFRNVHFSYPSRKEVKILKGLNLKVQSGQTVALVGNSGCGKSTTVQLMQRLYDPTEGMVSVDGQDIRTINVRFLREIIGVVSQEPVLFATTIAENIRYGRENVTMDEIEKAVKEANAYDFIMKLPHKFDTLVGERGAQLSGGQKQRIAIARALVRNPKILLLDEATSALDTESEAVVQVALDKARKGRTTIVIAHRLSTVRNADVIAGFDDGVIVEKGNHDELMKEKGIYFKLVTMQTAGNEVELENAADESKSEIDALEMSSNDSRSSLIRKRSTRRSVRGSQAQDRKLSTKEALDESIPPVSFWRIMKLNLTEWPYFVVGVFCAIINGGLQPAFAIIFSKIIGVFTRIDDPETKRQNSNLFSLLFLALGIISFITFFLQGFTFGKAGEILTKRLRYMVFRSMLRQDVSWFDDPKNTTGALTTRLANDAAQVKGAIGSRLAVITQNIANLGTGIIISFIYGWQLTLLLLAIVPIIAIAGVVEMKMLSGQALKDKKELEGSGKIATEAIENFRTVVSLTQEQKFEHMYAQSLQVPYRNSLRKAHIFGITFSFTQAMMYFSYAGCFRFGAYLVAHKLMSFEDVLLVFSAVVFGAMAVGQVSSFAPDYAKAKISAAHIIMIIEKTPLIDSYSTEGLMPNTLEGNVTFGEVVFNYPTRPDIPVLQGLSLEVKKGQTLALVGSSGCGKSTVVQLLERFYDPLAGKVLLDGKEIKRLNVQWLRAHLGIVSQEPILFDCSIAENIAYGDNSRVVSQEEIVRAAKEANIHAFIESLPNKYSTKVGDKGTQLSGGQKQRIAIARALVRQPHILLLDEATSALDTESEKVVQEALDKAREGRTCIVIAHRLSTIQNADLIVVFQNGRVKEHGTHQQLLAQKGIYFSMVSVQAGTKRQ

SMILES | IC50 [1] [µM] | inhibition at 100 μM [1] [%] | IC50 [2] [µM] | inhibition at 90 min, 100 μM [2] [%] | IC50 [3] [µM] | inhibition at 100 μM [3] [%] | effect on P-gp activity ([1]; pyrethroid 100 μM) | inhibition at 90 min, 100 μM ([2]; pyrethroid 100 μM, HEK-BCRP cells, Hoechst 33342, read-out: inhibition of BCRP activity) [%] | inhibition at 100 μM ([3]; pyrethroid 100 μM, CHO-OATP1B1 cells, E3S, read-out: inhibition of OATP1B1 activity) [%]
C=CCC1=C(C)C(OC(=O)C2C(C=C(C)C)C2(C)C)CC1=O (stereo not shown) [allethrin] | > 100 | 32.7 | 42.5 | 83.9 | 16.5 | > 85 | – | – | –
CC(C)=CC1C(C(=O)OCN2C(=O)C3=C(CCCC3)C2=O)C1(C)C (stereo not shown) [tetramethrin] | > 100 | 24.5 | 72.5 | – | 5.7 | – | moderately inhibited | 67.1 | > 85
